ChEMBL document CHEMBL1641581, “Ring A-seco triterpenoids with antibacterial activity from Dysoxylum hainanense” (2011)
Converted amounts (≈) assume the structure as drawn.

Experiments:
Format in all cases: functional
[1] = tested on: Nannizzia gypsea; test: Antifungal activity against Microsporum gypseum ATCC 14683 assessed as inhibition of visible growth
[2] = tested on: Bacillus subtilis; test: Antibacterial activity against Bacillus subtilis ATCC 6633 assessed as inhibition of visible growth
[3] = tested on: Shigella flexneri; test: Antibacterial activity against Shigella flexneri ATCC 12022 assessed as inhibition of visible growth
[4] = tested on: Staphylococcus epidermidis; test: Antibacterial activity against Staphylococcus epidermidis ATCC 12228 assessed as inhibition of visible growth
[5] = tested on: Staphylococcus aureus; test: Antibacterial activity against Staphylococcus aureus ATCC 25923 assessed as inhibition of visible growth
[6] = tested on: Trichophyton rubrum; test: Antifungal activity against Trichophyton rubrum ATCC 10218 assessed as inhibition of visible growth
[7] = tested on: Saccharomyces; test: Antifungal activity against Saccharomyces sake ATCC 26421 assessed as inhibition of visible growth
[8] = tested on: Micrococcus luteus; test: Antibacterial activity against Micrococcus luteus ATCC 9341 assessed as inhibition of visible growth
[9] = tested on: Escherichia coli; test: Antibacterial activity against Escherichia coli ATCC 25922 assessed as inhibition of visible growth
[10] = tested on: Candida albicans; test: Antifungal activity against Candida albicans ATCC 1600 assessed as inhibition of visible growth
[11] = tested on: Pseudomonas aeruginosa; test: Antibacterial activity against Pseudomonas aeruginosa ATCC 14502 assessed as inhibition of visible growth

## CC(C)(C(=O)O)[C@@H]1CC[C@]2(C)[C@H](CC=C3[C@@H]4C[C@@](C)(C(=O)O)CC[C@]4(C)CC[C@]32C)[C@@]1(C)C(=O)O [DYSOXYHAINIC ACID F]
[1]
  MIC: > 50 µg/mL
[2]
  MIC: > 50 µg/mL
[3]
  MIC: > 50 µg/mL
[4]
  MIC: > 50 µg/mL
[5]
  MIC: > 50 µg/mL
[6]
  MIC: > 50 µg/mL
[7]
  MIC: > 50 µg/mL
[8]
  MIC: > 50 µg/mL
[9]
  MIC: > 50 µg/mL
[10]
  MIC: > 50 µg/mL
[11]
  MIC: > 50 µg/mL

## C=C(C)[C@@H]1CC[C@]2(C)[C@H](CC=C3[C@@H]4C[C@@](C)(C(=O)O)CC[C@]4(C)CC[C@]32C)[C@@]1(C)CCC(=O)OC [DYSOXYHAINIC ACID G]
[1]
  MIC: > 50 µg/mL
[2]
  MIC: 3.12 µg/mL (≈ 6.44 µM)
[3]
  MIC: > 50 µg/mL
[4]
  MIC: 3.12 µg/mL (≈ 6.44 µM)
[5]
  MIC: > 50 µg/mL
[6]
  MIC: > 50 µg/mL
[7]
  MIC: > 50 µg/mL
[8]
  MIC: 3.12 µg/mL (≈ 6.44 µM)
[9]
  MIC: > 50 µg/mL
[10]
  MIC: > 50 µg/mL
[11]
  MIC: > 50 µg/mL

## C=C(C)[C@@H]1CC[C@]2(C)[C@H](CC[C@@H]3[C@H]4[C@H](C(C)(C)O)CC[C@]4(C)CC[C@]32C)[C@@]1(C)CCC(=O)O [DYSOXYHAINIC ACID H]
[1]
  MIC: > 50 µg/mL
[2]
  MIC: 3.12 µg/mL (≈ 6.8 µM)
[3]
  MIC: > 50 µg/mL
[4]
  MIC: > 50 µg/mL
[5]
  MIC: > 50 µg/mL
[6]
  MIC: > 50 µg/mL
[7]
  MIC: > 50 µg/mL
[8]
  MIC: 3.12 µg/mL (≈ 6.8 µM)
[9]
  MIC: > 50 µg/mL
[10]
  MIC: > 50 µg/mL
[11]
  MIC: > 50 µg/mL

## CC1(C)CC[C@]2(C)CC[C@]3(C)C(=CC[C@@H]4[C@@](C)(CCC(=O)O)[C@H](C(C)(C)O)CC[C@]43C)[C@@H]2C1 [DYSOXYHAINIC ACID I]
[1]
  MIC: > 50 µg/mL
[2]
  MIC: 1.56 µg/mL (≈ 3.4 µM)
[3]
  MIC: > 50 µg/mL
[4]
  MIC: 12.5 µg/mL (≈ 27.2 µM)
[5]
  MIC: > 50 µg/mL
[6]
  MIC: > 50 µg/mL
[7]
  MIC: > 50 µg/mL
[8]
  MIC: > 50 µg/mL
[9]
  MIC: > 50 µg/mL
[10]
  MIC: > 50 µg/mL
[11]
  MIC: > 50 µg/mL

## CC1(C)CC[C@]2(C)CC[C@]3(C)C(=CC=C4[C@@](C)(CCC(=O)O)[C@H](C(C)(C)O)CC[C@]43C)[C@@H]2C1 [DYSOXYHAINIC ACID J]
[1]
  MIC: > 50 µg/mL
[2]
  MIC: > 50 µg/mL
[3]
  MIC: > 50 µg/mL
[4]
  MIC: > 50 µg/mL
[5]
  MIC: > 50 µg/mL
[6]
  MIC: > 50 µg/mL
[7]
  MIC: > 50 µg/mL
[8]
  MIC: > 50 µg/mL
[9]
  MIC: > 50 µg/mL
[10]
  MIC: > 50 µg/mL
[11]
  MIC: > 50 µg/mL

## C=C(C)[C@@H]1CC[C@]2(C)[C@H](CC=C3[C@@H]4C[C@@](C)(C(=O)O)CC[C@]4(C)CC[C@]32C)[C@@]1(C)CCC(=O)O [KOETJAPIC ACID]
[1]
  MIC: > 50 µg/mL
[2]
  MIC: 6.25 µg/mL (≈ 13.3 µM)
[3]
  MIC: > 50 µg/mL
[4]
  MIC: 12.5 µg/mL (≈ 26.6 µM)
[5]
  MIC: > 50 µg/mL
[6]
  MIC: > 50 µg/mL
[7]
  MIC: > 50 µg/mL
[8]
  MIC: > 50 µg/mL
[9]
  MIC: > 50 µg/mL
[10]
  MIC: > 50 µg/mL
[11]
  MIC: > 50 µg/mL

## C=CCc1ccc(O)c(-c2cc(CC=C)ccc2O)c1 [MAGNOLOL]
[2]
  MIC: 12.5 µg/mL (≈ 46.9 µM)
[3]
  MIC: > 50 µg/mL
[4]
  MIC: 12.5 µg/mL (≈ 46.9 µM)
[5]
  MIC: 25 µg/mL (≈ 93.9 µM)
[8]
  MIC: 12.5 µg/mL (≈ 46.9 µM)
[9]
  MIC: > 50 µg/mL
[11]
  MIC: > 50 µg/mL

## COC(=O)C1=CC[C@@]23CC[C@@H]([C@@](C)(/C=C/C=C(\C)C(=O)O)OC2=O)[C@@]3(OC(C)=O)CC1 [PSEUDOLARIC ACID B]
[1]
  MIC: 12.5 µg/mL (≈ 28.9 µM)
[6]
  MIC: 25 µg/mL (≈ 57.8 µM)
[7]
  MIC: 12.5 µg/mL (≈ 28.9 µM)
[10]
  MIC: 6.25 µg/mL (≈ 14.5 µM)
